From patent publication US8658698B2, “Insecticidal compounds” (Syngenta Crop Protection, LLC, priority 2008, dated 2014)

Tests used:
Format in all cases: in vivo
[1] = system: Tetranychus urticae (Two-Spotted Spider Mite); assay: Tetranychus urticae bean leaf disc spray test; settings: same protocol, 200 ppm, 8 days
Method: (§1) This Example illustrates the pesticidal/insecticidal properties of compounds of formula (I). The tests were performed as follows:
(§2) Cotton leaf discs were placed on agar in a 24-well microtiter plate and sprayed with test solutions at an application rate of 200 ppm. After drying, the leaf discs were infested with 5 L1 larvae. The samples were checked for mortality, feeding behavior, and growth regulation 3 days after treatment (DAT). The following compounds gave at least 80% control of Spodoptera littoralis: A2, A6, A8, A9, A10, A11, A13, A15, A19, A20, A22, A25, A27, A29, A31, A33, A35, A41, A50, A55, A60, A65, A73, A88, A92, and A94. Heliothis virescens (Tobacco Budworm): Eggs (0-24 h old) were placed in 24-well microtiter plate on artificial diet and treated with test solutions at an application rate of 200 ppm (concentration in well 18 ppm) by pipetting. After an incubation period of 4 days, samples were checked for egg mortality, larval mortality and growth regulation. The following compounds gave at least 80% control of Heliothis virescens: A2, A3, A4, A5, A6, A7, A9, A10, A11, A13, A15, A19, A20, A22, A25, A26, A27, A28, A29, A31, A32, A33, A35, A38, A40, A41, A43, A46, A55, A59, A60, A65, A69, A70, A71, A73, A74, A75, A77, A79, A80, A82, A86, A88, A89, A90, A92, A94, A96, A98, and A100. Plutella xylostella (Diamond Back Moth): A 24-well microtiter plate (MTP) with artificial diet was treated with test solutions at an application rate of 200 ppm (concentration in well 18 ppm) by pipetting. After drying, the MTP's were infested with L2 larvae (7-12 per well). After an incubation period of 6 days, samples were checked for larval mortality and growth regulation. The following compounds gave at least 80% control of Plutella xylostella: A3, A4, A5, A6, A7, A8, A10, A15, A16, A18, A19, A20, A22, A25, A26, A27, A28, A29, A31, A32, A33, A35, A38, A40, A55, A69, A71, A73, A74, A75, A76, A77, A78, A80, A82, A86, A87, A88, A89, A92, A94, A96, A97, A98, and A99. Diabrotica balteata (Corn Root Worm): A 24-well microtiter plate (MTP) with artificial diet was treated with test solutions at an application rate of 200 ppm (concentration in well 18 ppm) by pipetting. After drying, the MTP's were infested with larvae (L2) (6-10 per well). After an incubation period of 5 days, samples were checked for larval mortality, and growth regulation. The following compounds gave at least 80% control of Diabrotica balteata: A5, A6, A7, A14, A15, A18, A24, A35, A53, A55, A70, A71, A75, A79, A84, A85, A88, A92, A93, A95, A96, A97, A98, A99, A100, A101, A102, A103, and A104. Myzus persicae (Green Peach Aphid): Each well of a 24-well microtiter plate is filled with 0.6 ml 30% sucrose solution, containing 12.5 ppm of the test compounds. The wells are covered with streched parafilm and infested with a mixed population of Myzus persicae. After an incubation period of 6 days, samples are checked for mortality (feeding activity). The following compounds gave at least 80% control of Myzus persicae: A4, A6, A10, A11, A15, A19, A20, A24, A27, A29, A33, A34, A36, A37, A39, A40, A41, A42, A43, A44, A45, A46, A47, A48, A49, A55, A60, and A82. Tetranychus urticae (Two-Spotted Spider Mite): Bean leaf discs on agar in 24-well microtiter plates were sprayed with test solutions at an application rate of 200 ppm. After drying, the leaf discs are infested with mite populations of mixed ages. 8 days later, discs are checked for egg mortality, larval mortality, and adult mortality. The following compounds gave at least 80% control of Tetranychus urticae: A6, A11, A15, A19, A20, A22, A26, A35, A58, and A64.

[2] = system: Plutella xylostella (Diamond Back Moth); assay: Plutella xylostella larvae test on artificial diet; settings: same protocol, 200 ppm (18 ppm in well), 6 days
Method: as §1, §2

[3] = system: Diabrotica balteata (Corn Root Worm); assay: Diabrotica balteata larvae test on artificial diet; settings: same protocol, 200 ppm (18 ppm in well), 5 days
Method: as §1, §2

[4] = system: Spodoptera littoralis (Egyptian Cotton Leafworm); assay: Spodoptera littoralis cotton leaf disc spray test; settings: same protocol, 200 ppm, 3 DAT
Method: as §1
Spodoptera littoralis (Egyptian Cotton Leafworm)
as §2

[5] = system: Heliothis virescens (Tobacco Budworm); assay: Heliothis virescens egg test on artificial diet; settings: same protocol, 200 ppm (18 ppm in well), 4 days
Method: as §1, §2

[6] = system: Myzus persicae (Green Peach Aphid); assay: Myzus persicae sucrose solution feeding test; settings: same protocol, 12.5 ppm, 6 days
Method: as §1, §2

Measured: effect on mortality, feeding behavior, or growth regulation

CCc1cc(C(F)(C(F)(F)F)C(F)(F)C(F)(F)F)cc(C)c1NC(=O)c1ccc(C(=O)Nc2nc3c(C)cccc3s2)c(C)c1 (stereo not drawn) [A62]
no or little effect: all assays above

CCc1cc(C(F)(C(F)(F)F)C(F)(F)C(F)(F)F)cc(C)c1NC(=O)c1ccc(C(=O)Nc2nnc(C)s2)c(C)c1 (stereo not drawn) [A63]
no or little effect: all assays above

CCc1cc(C(F)(C(F)(F)F)C(F)(F)C(F)(F)F)cc(C)c1NC(=O)c1ccc(C(=O)Nc2nc(-c3ccc(C)cc3)cs2)c(C)c1 (stereo not drawn) [A66]
no or little effect: all assays above

CCc1cc(C(F)(C(F)(F)F)C(F)(F)C(F)(F)F)cc(C)c1NC(=O)c1ccc(C(=O)NCCCN2CCCCC2)c(C)c1 (stereo not drawn) [A67]
no or little effect: all assays above

CCc1cc(C(F)(C(F)(F)F)C(F)(F)C(F)(F)F)cc(C)c1NC(=O)c1ccc(C(=O)NCc2cc(-c3ccc(Cl)cc3)no2)c(C)c1 (stereo not drawn) [A68]
no or little effect: all assays above

CCc1cc(C(F)(C(F)(F)F)C(F)(F)C(F)(F)F)cc(C)c1NC(=O)c1ccc(C(=O)NC2CC(C)(C)N(C)C(C)(C)C2)c(C)c1 (stereo not drawn) [A72]
no or little effect: all assays above

CCc1cc(C(F)(C(F)(F)F)C(F)(F)C(F)(F)F)cc(C)c1NC(=O)c1ccc(C(=O)NCc2ccc(C(C)(C)C)cc2)c(C)c1 (stereo not drawn) [A81]
no or little effect: all assays above

CCc1cc(C(F)(C(F)(F)F)C(F)(F)C(F)(F)F)cc(C)c1NC(=O)c1ccc(C(=O)NCc2ccc(Br)cc2F)c(C)c1 (stereo not drawn) [A83]
no or little effect: all assays above

CCc1cc(C(F)(C(F)(F)F)C(F)(F)C(F)(F)F)cc(C)c1NC(=O)c1ccc(C(=O)NCc2ccc(C)c(C)c2)c(C)c1 (stereo not drawn) [A91]
no or little effect: all assays above
